According to patent US20170239212A1, “[…] AND USE THEREOF AS ANTIVIRAL AGENTS” (priority 2014, published 2017):

Legend:
[1] = system: LNCaP human prostate cancer cells; experiment: Proliferation and morphology of LNCaP cells (Incucyte confluency imaging); format: cell-based; conditions: for Persistence of early morphological change (cell flattening) in LNCaP cells: Incucyte images, 0-9 hrs after treatment
Experimental: (§1) FIGS. 12A-12D show the effect of different compounds on the proliferation and apoptosis of LNCaP cells. […] Time-elapsed images were taken with an Incucyte imaging system every hour for 4 days. The proliferation of LNCaP cells is presented as increase in confluency (read by the instrument) at 80 hrs. Data represent the means±SEM of three independent experiments. […] Apoptosis was measured 2 days after treatment by flow cytometry using 7-AAD and Yo-Pro-1 as described in Materials and Methods. Data represent the means±SEM of three independent experiments.
FIGS. 13A and 13B show the proliferation and morphology of LNCaP cells detected by Incucyte. LNCaP cells were treated with DMSO as control, 300 nM PMA, 1000 nM bryostatin 1 or the bryologue MERLE 21, or with 300 nM PMA in combination with 1000 nM bryostatin 1 or the bryologue MERLE 21. Time-elapsed images were taken by the Incucyte imaging system every hour. […] The arrow indicates the time of treatment. Data are representative of three independent experiments.
The extent of confluency of LNCaP cells (from ATCC, Manassas, Va.) and the morphological changes after treatment were followed in real time using Incucyte (Essen Instruments, Ann Arbor, Mich.). Images of LNCaP cells plated into 24 well plates were taken every 1 hour by the instrument before and after treatment for a total of 4 days. The confluency of the cells was calculated by the instrument's program. The proliferation of LNCaP cells was expressed as the difference in cell confluency before and after treatment.

[2] = system: LNCaP human prostate cancer cells; experiment: Apoptosis of LNCaP cells (flow cytometry, Yo-Pro-1/7-AAD); format: cell-based; conditions: 48 hr; for Induction of apoptosis in LNCaP cells: compound alone
Experimental: as §1
(§2) LNCaP cells treated for 48 hours with the different drugs or with DMSO as control were washed and re-suspended in phosphate buffered saline. Yo-Pro-1 (Invitrogen, Carlsbad, Calif.) was added to a final concentration of 1 μM and the cells were incubated for 20 min at 4° C. in the dark. 7-Aminoactinomycin D (7-AAD) (Invitrogen, Carlsbad, Calif.) was then added at a 5 μg/mL final concentration 10 minutes before analysis by flow cytometry using the FACSCalibur system (Becton Dickinson, Mountain View, Calif.). Data were analyzed with FlowJo 7 (Tree Star Inc., Ashland, Oreg.). The Yo-Pro-1 positive cells were considered apoptotic and were expressed as % of total cells. Western blot analysis of treated LNCaP cell lysates was performed as described previously using rabbit anti-cFos, rabbit anti-PKC delta, rabbit anti-phospho-tyrosine 311 of PKC delta or rabbit anti-3-actin antibodies.

cFos = experiment: Induction of cFos in LNCaP cells (western blot); format: cell-based, human; conditions: 2, 5 or 8 hrs treatment
Experimental: (§3) FIGS. 14A-14C show the induction of cFos and phosphorylation of PKC6 at Y311 in LNCaP cells. […] The proteins from the lysates were separated by 10% SDS-PAGE, electroblotted to nitrocellulose membranes and probed with anti-cFos primary and anti-rabbit secondary antibodies, followed by ECL visualization. Data are representative of four independent experiments. […] The cFos signal was normalized to the 3-actin signal to correct for loading and the response induced by 100 nM PMA at 2 hrs was taken as 100%. Data represent the means±SEM of four independent experiments. […] Data represent the means±SEM of three independent experiments.
as §2, with “Western blot analysis of treated LNCaP cell lysates was performed as described previously using rabbit anti-cFos, rabbit anti-PKC delta, rabbit anti-phospho-tyrosine 311 of PKC delta or rabbit anti-3-actin antibodies.” left out

PKC delta = experiment: Phosphorylation of PKC delta at Y311 in LNCaP cells (western blot); format: cell-based, human; conditions: 2, 5 or 8 hrs treatment
Experimental: as §3
as §2, with “Western blot analysis of treated LNCaP cell lysates was performed as described previously using rabbit anti-cFos, rabbit anti-PKC delta, rabbit anti-phospho-tyrosine 311 of PKC delta or rabbit anti-3-actin antibodies.” left out

U937 cells = experiment: Inhibition of U937 cell proliferation; format: cell-based, human; conditions: for Block of PMA inhibition of U937 cell proliferation: 10 nM PMA with different concentrations of compound; for Inhibition of U937 cell proliferation (total cells as % of control): compound alone, 72 hours
Experimental: U937 cells (Sundstrom, C.; Nilsson, K.: Establishment and characterization of a human histiocytic lymphoma cell line (U-937). Int. J. Cancer 1976, 17: 565-577), purchased from ATCC (Manassas, Va.) and cultured in RPMI-1640 medium supplemented with 10% FBS (ATCC, Manassas, Va.), were plated in 35 mm dishes at a density of 2×10^5 living cells/ml and treated with different concentrations of the drugs or DMSO. After 72 hours, the number of cells in the supernatant (non-attached cells) and the number of attached cells (after trypsinization) were counted using a Beckman particle counter (Beckman Coulter Inc., Fullerton, Calif.). The number of attached cells is expressed as percent of total cells (FIGS. 8-10).
(§4) U937 cells were treated with PMA (0.1-100 nM), bryostatin 1 (1-1000 nM), the indicated compound (1-1000 nM), 10 nM PMA with different concentrations of bryostatin 1 (1-1000 nM) or 10 nM PMA with different concentrations of indicated compound (1-1000 nM). The number of attached and non-attached cells was counted and the number of total cells was expressed as % of control. The bars and error bars represent the average and the standard error of the mean of five independent experiments (FIGS. 8-10).
(§5) U937 cells (Sundstrom and Nilsson, 1976), purchased from ATCC (Manassas, Va.) and cultured in RPMI-1640 medium supplemented with 10% FBS (ATCC, Manassas, Va.), were plated in 35 mm dishes at a density of 1×10^5 living cells/ml and treated with different concentrations of the drugs or DMSO. After 72 hours, the number of cells in the supernatant (non-attached cells) and the number of attached cells (after trypsinization) were counted using a particle counter. The number of attached cells is expressed as percent of total cells.
U937 cells were treated with PMA (0.01-100 nM), bryostatin 1 (0.1-1000 nM), analogue 12 (MERLE 28) (0.1-1000 nM), 10 nM PMA with different concentrations of bryostatin 1 (0.1-1000 nM) or 10 nM PMA with different concentrations of analogue 12 (0.1-1000 nM). The numbers of attached and non-attached cells were counted and the number of total cells was expressed as % of control. The bars and error bars represent the average and the standard error of the mean of at least three independent experiments.
as §5
as §4, with “at least three” for “five”, “experiments.” for “experiments (FIGS. 8-10).”

## CCC/C=C/C=C/C(=O)O[C@H]1/C(=C/C(=O)OC)C[C@H]2C[C@H]([C@@H](C)O)OC(=O)C[C@H](O)C[C@@H]3C[C@H](OC(C)=O)C(C)(C)[C@](O)(C[C@@H]4C/C(=C/C(=O)OC)C[C@H](/C=C/C(C)(C)[C@]1(O)O2)O4)O3 [Bryostatin 1]
[1]; 300 nM PMA combined with 1000 nM compound, 80 hrs
  Block of PMA inhibition of LNCaP cell growth: blocked the inhibition of LNCaP cell growth by PMA
[1]
  Persistence of early morphological change (cell flattening) in LNCaP cells: had reversed by 6 hrs after treatment
[1]; compound alone, confluency at 80 hrs
  Effect on LNCaP cell growth: induced a low level of inhibition of cell growth
[2]; 300 nM PMA combined with 1000 nM compound
  Block of PMA-induced apoptosis in LNCaP cells: largely blocked the induction of apoptosis by PMA
[2]
  Induction of apoptosis in LNCaP cells: had little effect
cFos
  Time course of cFos induction in LNCaP cells: largely lost by 5 hrs
PKC delta
  Phosphorylation of PKC delta at Y311 in LNCaP cells: only very weak phosphorylation
U937 cells
  Block of PMA inhibition of U937 cell proliferation: blocks the effect of the phorbol ester
  Inhibition of U937 cell proliferation (total cells as % of control): has much less effect on either response
U937 cells; listed as bryostatin 1
  Block of PMA inhibition of U937 cell proliferation: able to block the effect of PMA in a dose dependent manner
  Inhibition of U937 cell proliferation (total cells as % of control): not strongly antiproliferative

## CCCCCCCCCCCCCC(=O)O[C@@H]1[C@@H](C)[C@@]2(O)[C@@H](C=C(CO)C[C@]3(O)C(=O)C(C)=C[C@@H]23)[C@@H]2C(C)(C)[C@]12OC(C)=O [PMA, phorbol 12-myristate 13-acetate]
[1]
  Persistence of early morphological change (cell flattening) in LNCaP cells: still evident at 6 hrs but reversing by 9 hrs
[2]
  Induction of apoptosis in LNCaP cells: induced apoptosis
cFos
  Time course of cFos induction in LNCaP cells: persisted for 5 hrs, with weak induction still evident at 8 hrs
PKC delta
  Phosphorylation of PKC delta at Y311 in LNCaP cells: rapid phosphorylation
U937 cells
  Inhibition of U937 cell proliferation (total cells as % of control): inhibits cell proliferation
